Test results: ChEMBL document CHEMBL4507319 (2021)

Columns and labels:
Details in all cases: Compound concentration 1.0 uM
[1] = molecular target: Cyclin-dependent kinase-like 1 (Homo sapiens) (UniProt Q00532); assay: CDKL1(h) Eurofins kinase panel
[2] = molecular target: T1, Mitogen-activated protein kinase kinase kinase kinase 3 (Homo sapiens) (UniProt Q8IVH8); assay: MAP4K3(h) Eurofins kinase panel
T1 sequence (whole entry): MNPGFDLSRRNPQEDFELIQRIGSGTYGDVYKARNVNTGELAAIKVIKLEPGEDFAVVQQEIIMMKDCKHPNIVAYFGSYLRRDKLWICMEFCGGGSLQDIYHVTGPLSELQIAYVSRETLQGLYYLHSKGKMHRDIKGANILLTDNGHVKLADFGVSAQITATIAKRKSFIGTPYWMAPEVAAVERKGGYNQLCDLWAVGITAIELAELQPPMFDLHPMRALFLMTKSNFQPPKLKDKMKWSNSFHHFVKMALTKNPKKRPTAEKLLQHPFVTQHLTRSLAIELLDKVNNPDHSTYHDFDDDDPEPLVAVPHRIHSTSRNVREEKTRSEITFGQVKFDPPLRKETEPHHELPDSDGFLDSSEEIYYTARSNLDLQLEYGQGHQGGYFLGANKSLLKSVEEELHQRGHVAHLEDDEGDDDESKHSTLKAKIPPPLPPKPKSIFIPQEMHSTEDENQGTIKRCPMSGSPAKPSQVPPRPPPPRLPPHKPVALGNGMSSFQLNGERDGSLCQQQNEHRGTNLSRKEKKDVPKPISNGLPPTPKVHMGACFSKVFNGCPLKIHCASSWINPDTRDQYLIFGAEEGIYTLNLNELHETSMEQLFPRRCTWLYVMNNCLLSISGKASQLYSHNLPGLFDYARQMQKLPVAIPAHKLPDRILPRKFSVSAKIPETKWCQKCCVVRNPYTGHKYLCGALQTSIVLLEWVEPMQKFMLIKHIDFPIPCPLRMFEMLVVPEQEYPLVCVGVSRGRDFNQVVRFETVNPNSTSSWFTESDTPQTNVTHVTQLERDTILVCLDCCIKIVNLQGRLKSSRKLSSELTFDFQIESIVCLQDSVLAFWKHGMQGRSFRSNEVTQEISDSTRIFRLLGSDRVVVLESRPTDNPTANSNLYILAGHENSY

[3] = molecular target: Serine/threonine-protein kinase mTOR (Homo sapiens) (UniProt P42345); assay: mTOR(h) Eurofins kinase panel
[4] = molecular target: T2, Myosin-IIIb (Homo sapiens) (UniProt Q8WXR4); assay: MYO3B(h) Eurofins kinase panel
T2 sequence (whole entry): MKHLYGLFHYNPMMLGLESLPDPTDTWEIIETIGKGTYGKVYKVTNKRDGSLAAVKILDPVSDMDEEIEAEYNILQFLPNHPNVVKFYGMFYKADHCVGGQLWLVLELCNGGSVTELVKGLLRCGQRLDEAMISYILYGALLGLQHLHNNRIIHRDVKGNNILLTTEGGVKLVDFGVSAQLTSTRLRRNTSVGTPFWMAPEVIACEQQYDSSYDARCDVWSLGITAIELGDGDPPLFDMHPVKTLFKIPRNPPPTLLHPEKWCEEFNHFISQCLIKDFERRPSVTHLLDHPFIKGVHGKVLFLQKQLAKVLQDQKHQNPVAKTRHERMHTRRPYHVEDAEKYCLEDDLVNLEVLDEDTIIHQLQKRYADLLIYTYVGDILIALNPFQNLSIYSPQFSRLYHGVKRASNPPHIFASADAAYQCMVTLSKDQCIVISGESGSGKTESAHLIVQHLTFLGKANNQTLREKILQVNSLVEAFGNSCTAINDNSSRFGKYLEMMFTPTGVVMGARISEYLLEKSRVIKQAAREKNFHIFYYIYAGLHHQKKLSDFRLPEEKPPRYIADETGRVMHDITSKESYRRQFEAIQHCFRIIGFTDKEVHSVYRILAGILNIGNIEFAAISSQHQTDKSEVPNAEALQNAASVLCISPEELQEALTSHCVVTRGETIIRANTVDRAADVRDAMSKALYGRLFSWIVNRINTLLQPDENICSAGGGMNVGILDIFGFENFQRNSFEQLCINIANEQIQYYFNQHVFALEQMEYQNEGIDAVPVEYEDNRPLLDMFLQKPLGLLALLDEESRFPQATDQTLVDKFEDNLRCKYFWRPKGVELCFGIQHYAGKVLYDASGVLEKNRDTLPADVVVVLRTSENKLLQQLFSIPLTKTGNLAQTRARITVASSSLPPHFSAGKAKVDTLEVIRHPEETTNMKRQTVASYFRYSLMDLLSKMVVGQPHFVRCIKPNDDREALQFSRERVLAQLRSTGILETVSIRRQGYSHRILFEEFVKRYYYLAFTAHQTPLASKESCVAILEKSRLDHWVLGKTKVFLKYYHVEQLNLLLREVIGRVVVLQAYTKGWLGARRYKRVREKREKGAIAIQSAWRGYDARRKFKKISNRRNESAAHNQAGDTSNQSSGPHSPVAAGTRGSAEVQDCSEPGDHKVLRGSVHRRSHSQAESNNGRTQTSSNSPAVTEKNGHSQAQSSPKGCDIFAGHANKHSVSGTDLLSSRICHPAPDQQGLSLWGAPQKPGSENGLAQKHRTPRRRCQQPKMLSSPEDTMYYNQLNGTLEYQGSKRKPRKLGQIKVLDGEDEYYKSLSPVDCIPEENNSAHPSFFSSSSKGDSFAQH

[5] = molecular target: Serine/threonine-protein kinase PAK 2 (Homo sapiens) (UniProt Q13177); assay: PAK2(h) Eurofins kinase panel
Serine/threonine-protein kinase PAK 2 (Homo sapiens), sequence (Q13177 whole entry): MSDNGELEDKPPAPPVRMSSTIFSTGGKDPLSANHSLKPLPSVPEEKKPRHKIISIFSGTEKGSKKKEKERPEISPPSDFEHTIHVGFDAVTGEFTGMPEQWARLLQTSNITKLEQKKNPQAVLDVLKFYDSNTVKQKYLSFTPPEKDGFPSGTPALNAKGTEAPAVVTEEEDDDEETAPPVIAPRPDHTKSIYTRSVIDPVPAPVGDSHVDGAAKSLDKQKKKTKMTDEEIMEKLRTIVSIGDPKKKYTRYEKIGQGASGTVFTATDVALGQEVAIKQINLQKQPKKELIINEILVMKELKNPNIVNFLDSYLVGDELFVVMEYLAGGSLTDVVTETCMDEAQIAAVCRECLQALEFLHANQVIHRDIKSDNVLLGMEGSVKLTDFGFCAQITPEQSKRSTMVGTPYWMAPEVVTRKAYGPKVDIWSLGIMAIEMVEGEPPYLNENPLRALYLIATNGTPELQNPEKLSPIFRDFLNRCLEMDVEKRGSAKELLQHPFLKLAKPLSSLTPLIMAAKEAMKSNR

[6] = molecular target: SRSF protein kinase 2 (Homo sapiens) (UniProt P78362); assay: SRPK2(h) Eurofins kinase panel
SRSF protein kinase 2 (Homo sapiens), sequence (P78362 whole entry, looked up): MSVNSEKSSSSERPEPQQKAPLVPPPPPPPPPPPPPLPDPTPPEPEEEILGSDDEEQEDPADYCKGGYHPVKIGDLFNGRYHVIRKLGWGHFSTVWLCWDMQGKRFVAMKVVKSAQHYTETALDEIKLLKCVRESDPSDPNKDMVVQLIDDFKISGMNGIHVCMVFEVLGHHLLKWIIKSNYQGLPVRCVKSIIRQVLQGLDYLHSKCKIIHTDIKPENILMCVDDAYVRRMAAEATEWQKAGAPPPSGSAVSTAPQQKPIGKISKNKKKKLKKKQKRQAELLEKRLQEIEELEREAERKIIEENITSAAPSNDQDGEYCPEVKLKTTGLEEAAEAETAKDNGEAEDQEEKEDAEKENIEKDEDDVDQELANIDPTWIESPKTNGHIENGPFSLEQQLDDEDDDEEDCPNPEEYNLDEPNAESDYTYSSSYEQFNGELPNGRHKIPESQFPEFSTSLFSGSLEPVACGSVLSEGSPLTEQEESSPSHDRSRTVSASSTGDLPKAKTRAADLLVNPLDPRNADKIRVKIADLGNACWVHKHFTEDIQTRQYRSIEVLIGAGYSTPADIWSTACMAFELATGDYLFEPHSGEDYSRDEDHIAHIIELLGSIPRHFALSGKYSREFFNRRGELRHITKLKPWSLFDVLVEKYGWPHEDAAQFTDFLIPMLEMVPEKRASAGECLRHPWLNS

Measured: % residual kinase activity

Cyclin-dependent kinase-like 1 (Homo sapiens), sequence (Q00532 whole entry): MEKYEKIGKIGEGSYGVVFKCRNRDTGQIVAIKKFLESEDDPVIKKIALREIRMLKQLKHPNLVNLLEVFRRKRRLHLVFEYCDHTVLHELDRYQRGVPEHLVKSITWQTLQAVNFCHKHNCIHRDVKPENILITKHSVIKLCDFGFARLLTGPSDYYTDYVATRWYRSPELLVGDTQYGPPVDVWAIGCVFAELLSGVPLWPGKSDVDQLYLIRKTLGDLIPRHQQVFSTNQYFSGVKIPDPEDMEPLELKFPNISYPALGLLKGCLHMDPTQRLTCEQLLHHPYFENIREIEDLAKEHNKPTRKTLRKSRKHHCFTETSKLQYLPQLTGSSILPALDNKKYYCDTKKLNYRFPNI

CCc1ccccc1C(=O)Nc1n[nH]c2c(C)c(F)c(C3C(C#N)=C(C)N(C)C(C)=C3C#N)cc12 [BAY-3827]
inactive: [1] 95% | [2] 78% | [3] 116% | [4] 24% | [5] 105% | [6] 83%
